# Results published in PubChem BioAssay (NCI).
#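 Values below derive from 48-hour exposures of cells grown in 96-well plates, with endpoints linearly interpolated between the two concentrations bracketing the appropriate inhibition level. Abbreviation: GI50, concentration required for 50% inhibition of growth. TGI is the concentration that stops growth completely.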
# Key:
# Assay in all cases: DTP human tumour cell line panel, 48 h
# [1] = tested on: A549 NSCLC
# [2] = tested on: HL-60(TB) leukemia
# [3] = tested on: K-562 leukemia
# [4] = tested on: M14 melanoma
# [5] = tested on: MDA-MB-435
# [6] = tested on: MOLT-4 leukemia
# [7] = tested on: NCI-H23 lung
# [8] = tested on: NCI-H522 lung
# [9] = tested on: SN12C renal
# [10] = tested on: SNB-19 CNS
SMILES,TGI [1],TGI [2],TGI [3],TGI [4],TGI [5],TGI [6],TGI [7],TGI [8],TGI [9],TGI [10],GI50 [1],GI50 [2],GI50 [3],GI50 [4],GI50 [5],GI50 [6],GI50 [7],GI50 [8],GI50 [9],GI50 [10]
O=C(Nc1ccccc1C(=O)NCCCO)/C(=C/c1ccccc1O)NC(=O)c1ccccc1,> 100 µM,> 100 µM,> 100 µM,> 100 µM,> 100 µM,> 100 µM,> 94.5 µM,> 100 µM,> 100 µM,40.8 µM,–,–,–,–,–,–,–,–,–,–
NC(=O)c1cc2ccccc2o/c1=N/O,> 100 µM,> 100 µM,> 100 µM,> 100 µM,> 100 µM,> 100 µM,> 100 µM,> 100 µM,> 100 µM,> 100 µM,–,–,–,–,–,–,–,–,–,–
COCc1nc2c(OC)cc(-c3nc4ccc(N5CCN(C)CC5)cc4[nH]3)c(OC)c2[nH]1,> 100 µM,> 100 µM,> 100 µM,31.9 µM,> 100 µM,> 100 µM,> 100 µM,> 100 µM,> 100 µM,> 100 µM,–,–,–,–,–,–,–,–,–,–
Nc1ccc(S(=O)(=O)Nc2nc3ccccc3nc2N2CCCCC2)cc1,> 100 µM,> 100 µM,> 100 µM,> 100 µM,> 100 µM,> 100 µM,> 100 µM,> 100 µM,> 100 µM,> 100 µM,–,–,–,–,–,–,–,–,–,–
C=c1c(OC)c(OC)c(O)c2c1=c1cc([N+](=O)[O-])cc(OC)c1=N2,> 100 µM,> 100 µM,> 100 µM,> 100 µM,> 100 µM,> 100 µM,> 100 µM,> 100 µM,> 100 µM,> 100 µM,–,–,–,–,–,–,–,–,–,–
CC1(C)CNC(=O)C2(C=NC(C)(C)CNC(=O)C3(C=N1)CCCO3)CCCO2 (stereo not given),> 10 µM,> 10 µM,> 10 µM,> 10 µM,> 10 µM,> 10 µM,> 10 µM,> 10 µM,> 10 µM,> 10 µM,–,–,–,–,–,–,–,–,–,–
CC1(CNCc2ccccc2)CC(CCc2ccccc2)N(C(=O)c2ccc([N+](=O)[O-])cc2)C1Cc1ccc(O)cc1 (stereo not given),24.8 µM,54.4 µM,> 100 µM,28 µM,28.2 µM,> 100 µM,23.5 µM,22.3 µM,20.8 µM,29.1 µM,–,–,–,–,–,–,–,–,–,–
N#Cc1cc2c(cc1Cl)Sc1nccn1S2(=O)=O,28.7 µM,16.6 µM,17.2 µM,4.02 µM,17.5 µM,2.54 µM,3.35 µM,4.11 µM,20.8 µM,24.6 µM,–,–,–,–,–,–,–,–,–,–
CC(C)(C)c1cc(/C=C(\C#N)C(=O)NCCO)cc(C(C)(C)C)c1O,> 100 µM,36.9 µM,86.7 µM,31.8 µM,45 µM,59.1 µM,89.7 µM,37 µM,51.6 µM,> 100 µM,–,–,–,–,–,–,–,–,–,–
CC1(C)C=C(S(=O)(=O)c2ccccc2)Oc2ccccc2O1,> 100 µM,46.2 µM,> 100 µM,> 100 µM,48 µM,71.9 µM,> 100 µM,> 100 µM,> 100 µM,> 100 µM,–,–,–,–,–,–,–,–,–,–
CCC(C)C(=O)OC1CC2(C)C(c3ccoc3)OC(=O)CC23OC2(C)OC34C(OC(=O)C(C)C)C3(O)C(OC(=O)C5(C)OC5C)C5(C)CC3(O)C(C)(C5CC(=O)OC)C14O2 (stereo not given),> 100 µM,38.9 µM,> 100 µM,> 100 µM,> 100 µM,65.8 µM,> 100 µM,> 100 µM,> 100 µM,> 100 µM,–,–,–,–,–,–,–,–,–,–
Brc1ccc2c(-c3csc(-c4c[nH]c5ccc(Br)cc45)n3)c[nH]c2c1,19 µM,19.7 µM,> 22.2 µM,13.3 µM,17.7 µM,> 22.4 µM,14.2 µM,4.95 µM,18.9 µM,14.7 µM,–,–,–,–,–,–,–,–,–,–
CCOc1cc(-c2nc3ccccn3c2/N=C/c2cc(Br)ccc2O)ccc1O,> 100 µM,> 100 µM,> 100 µM,> 100 µM,> 100 µM,> 100 µM,> 100 µM,> 100 µM,> 100 µM,52.6 µM,–,–,–,–,–,–,–,–,–,–
NC(=O)C(=CNC(=S)c1ccncc1)C(N)=O,> 100 µM,> 100 µM,> 100 µM,> 100 µM,> 100 µM,> 100 µM,> 100 µM,> 100 µM,> 100 µM,> 100 µM,–,–,–,–,–,–,–,–,–,–
Cc1nc(C)c(Cc2ccccc2)o1,> 100 µM,> 100 µM,> 100 µM,> 100 µM,> 100 µM,> 100 µM,> 100 µM,> 100 µM,> 100 µM,> 100 µM,–,–,–,–,–,–,–,–,–,–
COc1ccc2cc(NC(=O)N/N=C\c3ccc(Cl)cc3)ccc2c1,> 100 µM,> 100 µM,> 100 µM,> 100 µM,> 100 µM,> 100 µM,> 100 µM,> 100 µM,> 100 µM,> 100 µM,–,–,–,–,–,–,–,–,–,–
Nc1c(C(=O)c2ccc(Cl)cc2)[nH]c(NCc2ccccc2)c1C(=S)Nc1ccccc1,4.87 µM,14 µM,4.04 µM,3.54 µM,3.14 µM,6.49 µM,5.95 µM,3.38 µM,17 µM,15.1 µM,–,–,–,–,–,–,–,–,–,–
CC(=S)N=Cc1c(O)cc(C)oc1=O,> 100 µM,> 100 µM,> 100 µM,> 100 µM,> 100 µM,> 100 µM,> 100 µM,> 100 µM,> 100 µM,> 100 µM,–,–,–,–,–,–,–,–,–,–

SMILES,TGI [1],TGI [2],TGI [3],TGI [4],TGI [5],TGI [6],TGI [7],TGI [8],TGI [9],TGI [10],GI50 [1],GI50 [2],GI50 [3],GI50 [4],GI50 [5],GI50 [6],GI50 [7],GI50 [8],GI50 [9],GI50 [10]
Cc1nn(-c2cc(Cl)ccc2[N+](=O)[O-])c(C)c1Cl,> 100 µM,> 100 µM,> 100 µM,> 100 µM,> 100 µM,> 100 µM,> 100 µM,> 100 µM,> 100 µM,> 100 µM,–,–,–,–,–,–,–,–,–,–
OC1(c2ccc(Cl)cc2)c2ccc3ccccc3c2C2=N[C@H]3CCCC[C@@H]3N21 (stereo not given in full),> 100 µM,> 100 µM,> 100 µM,23 µM,> 100 µM,> 100 µM,> 100 µM,> 100 µM,> 100 µM,> 100 µM,–,–,–,–,–,–,–,–,–,–
NC(N)=NS(=O)(=O)c1ccc(NC(=O)c2ccc3nc4ccccc4c(Nc4ccc(S(=O)(=O)N=C(N)N)cc4)c3c2)cc1,> 100 µM,> 100 µM,> 100 µM,> 100 µM,> 100 µM,> 100 µM,> 100 µM,> 100 µM,> 100 µM,> 100 µM,–,–,–,–,–,–,–,–,–,–
CSc1nc2c(c(=O)n1C)N=C(c1ccccc1)[C@H](C(CC(=O)c1ccccc1)c1ccccc1)C(c1ccccc1)N2 (stereo not given in full),> 100 µM,> 100 µM,> 100 µM,> 100 µM,> 100 µM,> 100 µM,> 100 µM,> 100 µM,> 100 µM,> 100 µM,–,–,–,–,–,–,–,–,–,–
c1ccc2c3c(c(N4CCOCC4)nc2c1)CCCC3,> 100 µM,69.3 µM,> 100 µM,> 100 µM,> 100 µM,> 100 µM,> 100 µM,> 100 µM,> 100 µM,> 100 µM,–,–,–,–,–,–,–,–,–,–
Brc1cc2nn(-c3ccccc3)nc2c2nonc12,> 100 µM,> 100 µM,> 100 µM,> 100 µM,> 100 µM,> 100 µM,> 100 µM,> 100 µM,> 100 µM,> 100 µM,–,–,–,–,–,–,–,–,–,–
CC1S/C(=N/c2nnc(-c3ccccc3)o2)NC1=O (stereo not given),> 100 µM,> 100 µM,> 100 µM,56.5 µM,> 100 µM,> 100 µM,> 100 µM,> 100 µM,> 100 µM,> 100 µM,–,–,–,–,–,–,–,–,–,–
Cc1cc2[nH]c3c(C#N)c4c(c(=O)n3c2cc1C)CCCC4,> 100 µM,> 100 µM,> 100 µM,27.6 µM,> 100 µM,> 100 µM,> 100 µM,> 100 µM,> 100 µM,> 100 µM,–,–,–,–,–,–,–,–,–,–
COC(=O)C1=Nc2c(C)nn(-c3ccccc3)c2N=C(c2ccc([N+](=O)[O-])cc2)C1,> 10 µM,> 10 µM,> 10 µM,> 10 µM,> 10 µM,> 10 µM,> 10 µM,> 10 µM,> 10 µM,> 10 µM,–,–,–,–,–,–,–,–,–,–
N#Cc1c(-c2ccc(F)cc2)nc(N/N=C/c2c[nH]c3ccccc23)nc1N1CCOCC1,69.9 µM,7.57 µM,14.2 µM,4.87 µM,74.9 µM,9.63 µM,92.7 µM,7.15 µM,> 100 µM,> 100 µM,3.99 µM,0.563 µM,1.79 µM,2.1 µM,9.26 µM,1.6 µM,21.2 µM,2.59 µM,16.6 µM,21 µM
C=C1C(=O)O[C@@]23C1CC[C@@H](C)C2CC[C@@]1(C)OC31 (stereo not given in full),> 100 µM,10.6 µM,66.1 µM,12.9 µM,23 µM,31.8 µM,20.6 µM,20.2 µM,21.5 µM,47.4 µM,–,–,–,–,–,–,–,–,–,–
CCOC(=O)C(CC#Cc1ccc(C#CCC(NC(C)=O)C(=O)OCC)cc1)NC(C)=O (stereo not given),> 100 µM,> 100 µM,> 100 µM,> 100 µM,> 100 µM,> 100 µM,> 100 µM,> 100 µM,> 100 µM,> 100 µM,–,–,–,–,–,–,–,–,–,–
COc1ccc2c(c1)CN1C(=N2)CSC1c1ccccc1Cl (stereo not given),> 100 µM,24.9 µM,30.5 µM,35.4 µM,39.9 µM,19 µM,3.45 µM,39.2 µM,40.1 µM,> 100 µM,–,–,–,–,–,–,–,–,–,–
O=C1C=CC(=O)c2c(O)c(NCCc3ccc(O)cc3)c(Cl)c(O)c21,> 10 µM,> 10 µM,> 10 µM,> 10 µM,> 10 µM,> 10 µM,> 10 µM,> 10 µM,> 10 µM,> 10 µM,–,–,–,–,–,–,–,–,–,–
O=c1c2ccccc2nc(Nc2cccc(Cl)c2)n1/N=C/C=C/c1ccccc1,> 100 µM,> 100 µM,> 100 µM,> 100 µM,> 100 µM,> 100 µM,> 100 µM,> 100 µM,> 100 µM,> 100 µM,–,–,–,–,–,–,–,–,–,–
O=C1CSC(c2cccs2)N1c1nc2cc3sc(N4C(=O)CSC4c4cccs4)nc3cc2s1 (stereo not given),> 50 µM,> 50 µM,> 50 µM,> 50 µM,> 50 µM,> 50 µM,> 50 µM,> 50 µM,> 50 µM,> 50 µM,–,–,–,–,–,–,–,–,–,–
COc1cc(CN2CCCCC2)cc2cc(C(=O)O)c(=O)oc12,> 100 µM,> 100 µM,> 100 µM,> 100 µM,> 100 µM,> 100 µM,> 100 µM,> 100 µM,> 100 µM,> 100 µM,–,–,–,–,–,–,–,–,–,–
